Measurements: publication PMC10672332, “Lecanicilliums A–F, Thiodiketopiperazine-Class Alkaloids from a Mangrove Sediment-Derived Fungus Lecanicillium kalimantanense” (Marine Drugs, 2023)
In brackets after ≈: the same amount, converted by molar mass. Like-named read-outs stand apart in the source and are kept apart here.

Assays:
Micrococcus luteus [1] = tested on: Micrococcus luteus; set-up: method as in PMID 25574740; conditions: cited from earlier work
[2] = tested on: human ovarian cancer cells; conditions: read-out: IC50 against human ovarian cancer cells; cited from earlier work
Staphylococcus aureus = conditions: cited from earlier work
S. aureus MRSA = experiment: Antibacterial assay, micro broth dilution; format: cell-based; conditions: Staphylococcus aureus, read-out: Antibacterial Activity (MIC) MRSA
Procedure: (§1) The micro broth dilution method was used to evaluate the antibacterial activities of compounds 1–19 against the growth of eight common pathogens: Bacillus subtilis BS01, Micrococcus luteus, Escherichia coli ATCC 25922, Staphylococcus aureus ATCC 6538, S. aureus MRSA, Streptococcus agalactiae ATCC 13813, S. iniae, and Pseudomonas aeruginosa ATCC 9027 in 96-well polystyrene plates. Vancomycin and ciprofloxacin were used as positive controls. Briefly, wells containing 100 μL bacteria dilutions (OD600 = 0.01) in Luria–Bertani (LB) medium were supplemented with different concentrations of 1–19 (80, 40, 20, 10, 5, 2.5, 1.25, and 0.625 μg/mL), vancomycin, and ciprofloxacin (40, 20, 10, 5, 2.5, 1.25, 0.625, and 0.3125 μg/mL), respectively. The MICs were determined after 24 hours’ incubation at 37 °C with the tested compounds.

Micrococcus luteus [3] = experiment: Antibacterial assay, micro broth dilution; format: cell-based; conditions: read-out: Antibacterial Activity (MIC) M. luteus
Procedure: as §1

[4] = tested on: Escherichia coli ATCC 25922; experiment: Antibacterial assay, micro broth dilution; format: cell-based; conditions: read-out: Antibacterial Activity (MIC) E. coli
Procedure: as §1

Bacillus subtilis BS01 = experiment: Antibacterial assay, micro broth dilution; format: cell-based; conditions: read-out: Antibacterial Activity (MIC) B. subtilis
Procedure: as §1

S. iniae = experiment: Antibacterial assay, micro broth dilution; format: cell-based; conditions: Streptococcus iniae, read-out: Antibacterial Activity (MIC) S. iniae
Procedure: as §1

[5] = tested on: Streptococcus agalactiae ATCC 13813; experiment: Antibacterial assay, micro broth dilution; format: cell-based; conditions: read-out: Antibacterial Activity (MIC) S. agalactiae
Procedure: as §1

[6] = tested on: Staphylococcus aureus ATCC 6538; experiment: Antibacterial assay, micro broth dilution; format: cell-based; conditions: read-out: Antibacterial Activity (MIC) S. aureus
Procedure: as §1

[7] = tested on: Pseudomonas aeruginosa ATCC 9027; experiment: Antibacterial assay, micro broth dilution; format: cell-based; conditions: read-out: Antibacterial Activity (MIC) P. aeruginosa
Procedure: as §1

[8] = Cytotoxicity, CCK-8 method; format: cell-based; conditions: human
Procedure: (§2) Cytotoxic activity was evaluated using the human lung adenocarcinoma cell line H1975 and human hepatocellular carcinoma cell line HepG-2, using the CCK-8 method as described in our previous study. Briefly, each of the test compounds was dissolved in DMSO and further diluted to give final concentrations of 80, 40, 20, 10, 5, 2.5, and 1.25 μM, respectively. H1975 cells or HepG-2 cells (5 × 10^3 […]) were seeded in 96-well plates and treated with compounds at the indicated concentration for 24 hours and then 10 μL CCK-8 reagent was added to each well. The plates were incubated at 37 °C for another 4 hours. Finally, the optical density was measured at a wavelength of 450 nm with a Bio-Rad microplate reader. Dose–response curves were generated, and the IC50 values were calculated from the linear portion of log dose–response curves.

[9] = Cytotoxicity, CCK-8 method; format: cell-based; conditions: human; remark: listed apart in the source
Procedure: as §2

brine shrimps = experiment: Brine shrimp lethality bioassay; format: in vivo; conditions: Table 3
Text: The methods were the same as those used in our previous studies.

[10] = Antibacterial assays, summary in text over several pathogens; format: cell-based; conditions: read-out: MIC values against four pathogens
Procedure: as §1

[11] = micro broth dilution, LB medium, 24 hours at 37 °C
[12] = ATCC25922, micro broth dilution, LB medium, 24 hours at 37 °C
[13] = BS01, micro broth dilution, LB medium, 24 hours at 37 °C
[14] = ATCC13813, micro broth dilution, LB medium, 24 hours at 37 °C
[15] = ATCC6538, micro broth dilution, LB medium, 24 hours at 37 °C
[16] = ATCC9027, micro broth dilution, LB medium, 24 hours at 37 °C

Compound	MIC (S. aureus MRSA; [11]) [mg/L]	MIC (Micrococcus luteus [3]; [11]) [mg/L]	MIC [4, 12] [mg/L]	MIC (Bacillus subtilis BS01; [13]) [mg/L]	MIC (S. iniae; [11]) [mg/L]	MIC [5, 14] [mg/L]	MIC [6, 15] [mg/L]	MIC [7, 16] [mg/L]	IC50 at 24 h [8] [µM]	IC50 at 24 h [9] [µM]	Toxicity (TC50) Brine Shrimp (brine shrimps) [mg/L]	further results
CS[C@@]12C[C@H]3[C@@H]([C@@H](O)C=C[C@@H]3O)N1C(=O)[C@]1(SC)C[C@H]3[C@@H]([C@@H](O)C=C[C@@H]3O)N1C2=O [Penicibrocazine C]	–	–	–	–	–	–	–	–	–	–	–	MIC against Micrococcus luteus (Micrococcus luteus [1]): 0.25 mg/L (≈ 0.55 µM)
O=C(N[C@H](CO)[C@H](O)c1ccc([N+](=O)[O-])cc1)C(Cl)Cl [chloromycetin]	–	–	–	–	–	–	–	–	–	–	–	MIC against Micrococcus luteus (Micrococcus luteus [1]): 2.0 mg/L (≈ 6.19 µM)
O=C1N2[C@H]3C(=CC=C[C@@H]3O)C[C@]23SS[C@]12C[C@H]1[C@@H]([C@@H](O)C=C[C@@H]1O)N2C3=O [brocazine G]	–	–	–	–	–	–	–	–	–	–	–	IC50 [2]: 0.66 µM; MIC against Staphylococcus aureus (Staphylococcus aureus): 0.25 mg/L (≈ 0.615 µM)
CSS[C@@]12CC3=COC=C[C@H](OC(C)=O)[C@H]3N1C(=O)[C@]1(SC)CC3=COC=C[C@H](OC(C)=O)[C@H]3N1C2=O [Compound 5, Lecanicillium E]	> 80	40 (≈ 70.6 µM)	80 (≈ 141 µM)	10 (≈ 17.6 µM)	15 (≈ 26.5 µM)	25 (≈ 44.1 µM)	> 80	> 80	> 80	16.3	40	MIC [10]: 10 to 40 mg/L (≈ 17.6 to 70.6 µM)
CSC12CC3=COC=CC(OC(C)=O)C3N1C(=O)C1(SC)CC3(O)C=CC(=O)C(OC(C)=O)C3N1C2=O (stereo not drawn) [Compound 4, Lecanicillium D]	> 80	> 80	> 80	50 (≈ 90.8 µM)	40 (≈ 72.6 µM)	> 80	> 80	> 80	> 80	71.5	80	–
CS[C@@]12CC3=COC=C[C@H](O)[C@H]3N1C(=O)[C@]1(SC)CC3=COC=C[C@H](O)[C@H]3N1C2=O [Compound 9, bisdethiobis(methylsulfanyl)deacetylaranotin]	> 80	> 80	> 80	> 80	> 80	> 80	> 80	> 80	> 80	> 80	>80	–
CS[C@@]12CC3=CC=C[C@H](OC(C)=O)[C@H]3N1C(=O)[C@]1(SC)CC3=COC=C[C@H](O)[C@H]3N1C2=O [Compound 11, 8-acetyl-bisdethiobis(methylsulfanyl)apoaranotin]	> 80	> 80	> 80	60 (≈ 126 µM)	50 (≈ 105 µM)	> 80	> 80	> 80	> 80	69.3	>80	–
CS[C@@]1(Cc2ccccc2)NC(=O)[C@]2(SC)CC3=COC=C[C@H](O)[C@H]3N2C1=O [Compound 18, emestrin H]	–	–	–	–	–	–	–	–	–	–	>80	MIC (S. aureus MRSA; 24 h): > 80 mg/L; MIC (Micrococcus luteus [3]; 24 h): > 80 mg/L; MIC ([4]; ATCC25922, 24 h): > 80 mg/L; MIC (Bacillus subtilis BS01; BS01, 24 h): 80 mg/L (≈ 191 µM); MIC (S. iniae; 24 h): 40 mg/L (≈ 95.6 µM); MIC ([5]; ATCC13813, 24 h): > 80 mg/L; MIC ([6]; ATCC6538, 24 h): > 80 mg/L; MIC ([7]; ATCC9027, 24 h): > 80 mg/L; IC50 at 24 h ([8]; HepG-2 cells, CCK-8, 24 hours treatment, read-out: Cytotoxicity (IC50) against HepG-2): 41.2 µM; IC50 at 24 h ([9]; H1975 cells, CCK-8, 24 hours treatment, read-out: Cytotoxicity (IC50) against H1975): 50.6 µM
